Columns and labels:
Type in all cases: in vivo
[1] = test system: bermudagrass (Cynodon dactylon); assay: Test C preemergence
Procedure, shortened: (§1)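 Preemergence: seeds sown then treated. Postemergence: plants 2–18 cm, 1- to 4-leaf. Both with surfactant-containing solvent formulation; visual injury scored 0–100 after 12–14 d.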

corn (Zea mays) = assay: Test C preemergence
Procedure, shortened: as §1

[2] = test system: johnsongrass (Sorghum halepense); assay: Test C preemergence; settings: for Plant response rating, Johnsongrass: scale 0 to 100, 0 no effect, 100 complete control
Procedure, shortened: as §1

[3] = test system: giant foxtail (Setaria faberii); assay: Test C preemergence
Procedure, shortened: as §1

kochia (Kochia scoparia) = assay: Test C preemergence
Procedure, shortened: as §1

soybean (Glycine max) = assay: Test C preemergence
Procedure, shortened: as §1

[4] = test system: Surinam grass (Brachiaria decumbens); assay: Test C preemergence
Procedure, shortened: as §1

[5] = test system: velvetleaf (Abutilon theophrasti); assay: Test C preemergence
Procedure, shortened: as §1

[6] = test system: lambsquarters (Chenopodium album); assay: Test C preemergence
Procedure, shortened: as §1

[7] = test system: cocklebur (Xanthium strumarium); assay: Test C preemergence
Procedure, shortened: as §1

[8] = test system: common ragweed (Ambrosia elatior); assay: Test C preemergence
Procedure, shortened: as §1

Sunflower [9] = assay: Test C preemergence; settings: Rate 125 g/ha; scale 0 to 100, 0 no effect, 100 complete control
[10] = test system: pigweed (Amaranthus retroflexus); assay: Test C preemergence
Procedure, shortened: as §1

Nightshade = assay: Test C preemergence
[11] = test system: woolly cupgrass (Eriochloa villosa); assay: Test C preemergence
Procedure, shortened: as §1

Sunflower [12] = assay: Test C preemergence; settings: Rate 500 g/ha, visual evaluation after 12 to 14 days
wild oat (Avena fatua) = assay: Test B postemergence; settings: Rate 500 g/ha, scale 0 to 100, 0 is no effect, 100 is complete control, 13 to 15 days
Procedure, shortened: (§2)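 Ratings on a 0 to 100 visual scale (100 complete control) compare treated plants with controls 13 to 15 days after application. Treatments were pre- or postemergence sprays of compound in non-phytotoxic solvent with surfactant.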

[13] = test system: lambsquarters (Chenopodium album); assay: Test B postemergence; settings: Rate 500 g/ha, scale 0 to 100, 0 is no effect, 100 is complete control, 13 to 15 days
Procedure, shortened: as §2

[14] = test system: cocklebur (Xanthium strumarium); assay: Test B postemergence; settings: 13 to 15 days
Procedure, shortened: as §2

[15] = test system: crabgrass (Digitaria sanguinalis); assay: Test B postemergence; settings: 13 to 15 days
Procedure, shortened: as §2

[16] = Rate 125 g/ha, scale 0 to 100, 0 no effect, 100 complete control
[17] = preemergence, Rate 62 g/ha, scale 0 to 100
[18] = preemergence, Rate 500 g/ha, visual evaluation after 12 to 14 days
[19] = preemergence, Rate 250 g/ha, scale 0 to 100, 0 no effect, 100 complete control
[20] = Rate 125 g/ha, scale 0 (no effect) to 100 (complete control)
[21] = Rate 500 g/ha, scale 0 to 100, 0 is no effect, 100 is complete control

Structure (SMILES): CCCOc1cc(N2CCC(n3ccc(C(C)(C)C)n3)C2=O)ccc1C (centres unmarked) [Compound 107]
- Plant response rating, Bermudagrass [1, 16]: 100
- Plant response rating, Bermudagrass [1, 17]: 85
- Plant response rating (0 to 100 where 0 is no effect and 100 is complete control), Bermudagrass [1, 18]: 100
- Plant response rating, Bermudagrass [1, 19]: 100
- Plant response rating, Corn (corn (Zea mays); [16]): 0
- Plant response rating, Corn (corn (Zea mays); [17]): 0
- Plant response rating (0 to 100), Corn (corn (Zea mays); [18]): 10
- Plant response rating, Corn (corn (Zea mays); [19]): 0
- Plant response rating, Johnsongrass ([2]; Rate 125 g/ha): 20
- Plant response rating (0 to 100), Johnsongrass [2, 18]: 50
- Plant response rating, Johnsongrass ([2]; preemergence, Rate 250 g/ha): 50
- Plant response rating, Foxtail, Giant [3, 16]: 100
- Plant response rating, Foxtail, Giant [3, 17]: 100
- Plant response rating (0 to 100), Foxtail, Giant [3, 18]: 100
- Plant response rating, Foxtail, Giant [3, 19]: 100
- Plant response rating, Kochia (kochia (Kochia scoparia); [16]): 70
- Plant response rating, Kochia (kochia (Kochia scoparia); [17]): 70
- Plant response rating (0 to 100), Kochia (kochia (Kochia scoparia); [18]): 100
- Plant response rating, Kochia (kochia (Kochia scoparia); [19]): 85
- Plant response rating, Soybean (soybean (Glycine max); [16]): 30
- Plant response rating, Soybean (soybean (Glycine max); [17]): 30
- Plant response rating (0 to 100), Soybean (soybean (Glycine max); [18]): 60
- Plant response rating, Soybean (soybean (Glycine max); [19]): 40
- Plant response rating, Surinam grass [4, 16]: 0
- Plant response rating, Surinam grass [4, 17]: 0
- Plant response rating (0 to 100), Surinam grass [4, 18]: 0
- Plant response rating, Surinam grass [4, 19]: 0
- Plant response rating, Velvetleaf [5, 16]: 50
- Plant response rating, Velvetleaf [5, 17]: 40
- Plant response rating (0 to 100), Velvetleaf [5, 18]: 100
- Plant response rating, Velvetleaf [5, 19]: 50
- Plant response rating, Lambsquarters [6, 16]: 100
- Plant response rating, Lambsquarters [6, 17]: 90
- Plant response rating (0 to 100), Lambsquarters [6, 18]: 100
- Plant response rating, Lambsquarters [6, 19]: 100
- Plant response rating, Cocklebur [7, 16]: 0
- Plant response rating, Cocklebur [7, 17]: 0
- Plant response rating (0 to 100), Cocklebur [7, 18]: 0
- Plant response rating, Cocklebur [7, 19]: 0
- Plant response rating, Ragweed, Common [8, 16]: 30
- Plant response rating, Ragweed, Common [8, 17]: 0
- Plant response rating (0 to 100), Ragweed, Common [8, 18]: 70
- Plant response rating, Ragweed, Common [8, 19]: 60
- Plant response rating, Sunflower (Sunflower [9]): 0
- Plant response rating, Pigweed [10, 16]: 0
- Plant response rating, Pigweed [10, 17]: 90
- Plant response rating (0 to 100), Pigweed [10, 18]: 100
- Plant response rating, Pigweed [10, 19]: 0
- Plant response rating, Nightshade (Nightshade; Rate 62 g/ha, scale 0 to 100): 80
- Plant response rating, Nightshade (Nightshade; [16]): 90
- Plant response rating, Nightshade (Nightshade; Rate 250 g/ha, scale 0 to 100, 0 no effect, 100 complete control): 90
- Plant response rating, Cupgrass, Woolly [11, 16]: 60
- Plant response rating, Cupgrass, Woolly [11, 17]: 50
- Plant response rating (0 to 100), Cupgrass, Woolly [11, 18]: 80
- Plant response rating, Cupgrass, Woolly [11, 19]: 80
- Plant response rating (0 to 100), Sunflower (Sunflower [12]): 70
- Plant response rating, Wild Oat (wild oat (Avena fatua)): 0
- Plant response rating, Lambsquarters [13]: 100
- Plant response rating, Cocklebur [14, 20]: 70
- Plant response rating, Cocklebur [14, 21]: 100
- Plant response rating, Crabgrass [15, 20]: 0
- Plant response rating, Crabgrass [15, 21]: 0
